{
  "source": "patent US20060211624A1",
  "about": "“Methods and compositions for the treatment of parkinson's disease and other alpha-synucleinopathies” (Goverment of the US, as Represented by, priority 2003, published 2006)",
  "key": {"tTGase [1]": {"molecular_target": "T1, tTGase (Homo sapiens, UniProt P21980)", "T1 construct": "expressed in transfected cells; host or cells: COS-7 (A2); HEK293T (A3); pSG5 expression vector", "T1 sequence (P21980 1-687)": "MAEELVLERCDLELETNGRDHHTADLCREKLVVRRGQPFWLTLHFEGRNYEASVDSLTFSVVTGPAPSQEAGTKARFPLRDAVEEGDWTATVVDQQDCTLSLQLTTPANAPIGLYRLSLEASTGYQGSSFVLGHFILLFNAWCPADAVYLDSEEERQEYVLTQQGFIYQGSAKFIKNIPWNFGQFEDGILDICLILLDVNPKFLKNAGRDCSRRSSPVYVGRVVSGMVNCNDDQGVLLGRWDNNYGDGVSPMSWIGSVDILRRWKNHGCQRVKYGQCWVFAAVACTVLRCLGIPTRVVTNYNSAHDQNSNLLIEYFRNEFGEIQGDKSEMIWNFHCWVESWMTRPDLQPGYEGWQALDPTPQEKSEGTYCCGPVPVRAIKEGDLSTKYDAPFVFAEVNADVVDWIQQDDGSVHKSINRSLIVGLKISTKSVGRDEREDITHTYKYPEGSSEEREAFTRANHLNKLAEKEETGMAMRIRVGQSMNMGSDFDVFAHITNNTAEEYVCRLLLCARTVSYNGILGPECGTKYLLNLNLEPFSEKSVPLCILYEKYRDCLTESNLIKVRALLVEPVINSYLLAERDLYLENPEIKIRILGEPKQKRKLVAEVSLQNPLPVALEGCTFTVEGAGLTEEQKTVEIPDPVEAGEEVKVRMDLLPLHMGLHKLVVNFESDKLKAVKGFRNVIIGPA", "test": "tTGase-induced α-synuclein aggregation in transfected COS-7 cells (detergent-insoluble fraction, Western blot)", "assay_type": "cell-based", "protocol": "Suitable tTGase inhibitor compounds for use in the treatment methods and compositions of the invention can be also be assessed by a protocol referred to herein as ‘a standard in vivo tTGase inhibition assay’, set forth as follows: Cells (e.g., neurons, COS-7 cells, or HEK […] cells) are co-transfected with an α-synuclein and tTGase expression plasmids (1 μg each) using FuGene 6 reagent (Roche Molecular Biochemicals, Indianapolis, Ind.) for 6 hours and cultured in DMEM containing 10% FBS for 48 hours. Cells are then lysed in a buffer containing PBS with 1% Triton X-100 and a mixture of protease inhibitors (Roche Molecular Biochemicals). Cells are homogenized with 20 strokes in a Dounce homogenizer, centrifuged at 20,000×g at 4° C. for 30 minutes. The detergent-insoluble fraction is used in Western blot analysis using an anti-α-synuclein antibody as described above for the standard in vitro assay. The cells in the assay can be cultured in the presence or absence of a candidate compound to determine whether the candidate compound can inhibit the production of the high-molecular weight aggregates. This defined standard in vivo tTGase inhibition assay is exemplified in Examples 1 and 2 (including the materials and methods section) which follows.\nα-Synuclein cDNA was cloned by PCR from human fetal brain cDNA library (Stratagene, La Jolla, Calif.) (Bennett, M. C. et al. (1999) J. Biol. Chem. 274:33855-33858) and subcloned into pcDNA3.1 (Invitrogen, Carlsbad, Calif.), and pTYB11 (New England Biolabs, Beverly, Mass.). tTGase cDNA was amplified by PCR from human liver cDNA library by using primers 5′-aagaattc[…]-3′ (SEQ ID NO:1) and 5′-aagaattc[…]-3′ (SEQ ID NO:2). Lowercase letters indicate additional nucleotides designed to facilitate cloning. The PCR product was inserted into pSG5 expression vector (Stratagene), and its sequence matched perfectly with the known cDNA sequence of human tTGase (Gentile, V. et al. (1991) J. Biol. Chem. 266:478-483). […] Mouse monoclonal tTGase antibody (CUB 7402) was purchased from DAKO (Carpinteria, Calif.). The rabbit polyclonal tTGase antibody was described in Kim. S. Y. et al. (1999) J. Biol. Chem. 274:30715-30721. Guinea pig liver tTGase, cystamine (CTM), and A23187 were purchased from Sigma (St. Louis, Mo.). Rabbit polyclonal α-synuclein antibodies were obtained from Sigma and Chemicon (Temecula, Calif.). Monoclonal anti-α-synuclein antibodies, SYN-1 and LB509, were from Transduction Laboratories (Lexington, Ky.) and Zymed (South San Francisco, Calif.), respectively. Monoclonal antibody recognizing ε(γ-glutamyl) lysine isodipeptide bonds (81D1C2) was purchased from Covalab (Lyon, France). Recombinant human α-synuclein protein was expressed in pTYB11 and purified by the IMPACT T7 system (New England Biolabs) according to the supplier's instructions.\n(§1) COS-7 and human embryonic kidney (HEK) 293T cell lines were maintained in DMEM containing 10% FBS. Transfections were performed by using FuGene 6 reagent (Roche Molecular Biochemicals, Indianapolis, Ind.) for a 6 hour incubation period, and then treatments were initiated.\nCells were lysed in a buffer containing PBS with 1% Triton X-100 and a mixture of protease inhibitors (Roche Molecular Biochemicals). […] Immunoprecipitates were analyzed by Western blots with antiisodipeptide antibody (81D1C2) or anti-α-synuclein antibody SYN-1 with the ECL detection system (NEN, Boston, Mass.). […]"}, "tTGase [2]": {"molecular_target": "T1, tTGase", "test": "tTGase-induced α-synuclein aggregates by immunocytochemistry in transfected HEK293T cells", "assay_type": "cell-based", "details": "48 hours", "protocol": "FIG. 1 depicts α-Synuclein the detection of aggregates by immunocytochemistry. HEK293T cells transiently transfected with α-synuclein in the absence or presence of tTGase were treated with CTM (100 μM, 200 μM) or A23187 (0.1 μg/ml) for 48 hours and stained for α-synuclein and tTGase. Aggregate-containing cells among transfected cells were counted in 10 randomly selected fields. Each microscopic field had 10-20 transfected cells. The data represent means±SEM. Significance levels determined by factorial ANOVA and the Bonferroni post hoc test are shown. *, P<0.002; * *, P<0.06; * * *, P<0.02.\nas §1\nHEK 293T cells transiently transfected as described in the Examples below were cultured in the presence or absence of indicated chemicals in collagen-coated Biocoat slides (Becton Dickinson, Bedford, Mass.) for 48 hours. […] Cells were washed five times with PBS and analyzed under a fluorescence microscope (Axiophot, Zeiss, Thornwood, N.Y.). For quantification of inclusions, 10 microscopic fields were randomly selected, and the percentage of inclusion-positive cells was counted among transfected cells. […]"}, "guinea pig liver tTGase": {"molecular_target": "T2, guinea pig liver tTGase (Cavia cutleri, UniProt P08587)", "T2 construct": "purified guinea pig liver tTGase (10 nM); purchased Sigma (St. Louis, Mo.); host or cells: guinea pig liver", "T2 sequence (P08587 1-690)": "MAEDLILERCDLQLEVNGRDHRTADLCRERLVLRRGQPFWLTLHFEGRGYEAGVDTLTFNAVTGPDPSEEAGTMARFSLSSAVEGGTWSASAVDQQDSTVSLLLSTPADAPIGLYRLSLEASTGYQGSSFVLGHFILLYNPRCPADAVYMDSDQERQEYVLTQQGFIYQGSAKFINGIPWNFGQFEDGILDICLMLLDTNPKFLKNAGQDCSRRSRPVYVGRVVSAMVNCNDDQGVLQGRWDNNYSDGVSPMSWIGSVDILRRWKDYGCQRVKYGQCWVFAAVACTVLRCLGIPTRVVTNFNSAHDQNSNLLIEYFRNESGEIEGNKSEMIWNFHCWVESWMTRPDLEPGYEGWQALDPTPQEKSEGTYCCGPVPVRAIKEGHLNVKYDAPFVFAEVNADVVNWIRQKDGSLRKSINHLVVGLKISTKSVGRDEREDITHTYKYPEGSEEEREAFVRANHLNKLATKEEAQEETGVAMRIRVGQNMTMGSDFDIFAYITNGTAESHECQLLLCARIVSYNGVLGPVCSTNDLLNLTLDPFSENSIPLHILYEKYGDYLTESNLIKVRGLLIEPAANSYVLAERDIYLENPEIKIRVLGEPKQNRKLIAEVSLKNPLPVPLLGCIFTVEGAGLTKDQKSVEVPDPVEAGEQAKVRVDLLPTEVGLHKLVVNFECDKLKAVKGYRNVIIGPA", "test": "In vitro cross-linking reaction of α-synuclein by tTGase (SDS/PAGE, Western blot)", "assay_type": "biochemical", "details": "37° C., 2 hours", "protocol": "Suitable tTGase inhibitor compounds for use in the treatment methods and compositions of the invention can be assessed by straightforward protocols, such as the following. […] The reaction products are then analyzed by standard SDS/PAGE and Western blot using an anti-α-synuclein antibody (e.g., rabbit polyclonal antibodies, available from Sigma or Chemicon (Temecula, Calif.); or monoclonal antibodies such as SYN-1 or LB509, available from Signal Transduction Laboratories (Lexington, Ky.) and Zymed (South San Francisco, Calif.), respectively). […]\nThe reaction was performed at 37° C. for 2 hours in a buffer containing 50 mM Tris-HCl (pH 7.5), 2 mM leupeptin, and 1 mM purified α-synuclein. […] The reaction was stopped by the addition of 20 mM EDTA, and products were analyzed by SDS/PAGE followed by Western blot.\nTo study the in vitro cross-linking of α-synuclein, purified recombinant human α-synuclein protein was incubated with guinea pig liver tTGase for 2 hours at 37° C., and the reaction products were analyzed by SDS/PAGE, followed by Western blotting with anti-α-synuclein antibody. […]"}, "[3]": {"details": "delayed treatment, 200 μM during the final 48 hours of 96 hours, COS-7"}},
  "data": [
    {"smiles": "NCCSSCCN", "note": "[CTM, cystamine]", "values": [
      {"measurement": "further de novo aggregation occurring during the final 48 hours", "setting": "tTGase [1]; [3]", "value": "inhibited further de novo aggregation"},
      {"measurement": "level of aggregates formed during the initial 48 hours (preformed aggregates)", "setting": "tTGase [1]; [3]", "value": "did not diminish"},
      {"measurement": "formation of tTGase-induced α-synuclein aggregates", "setting": "tTGase [1]; α-synuclein- and tTGase-transfected COS-7 cells, 200 μM for 48 hours", "value": "dramatically inhibited"},
      {"measurement": "inclusion formation (aggregate-containing cells among transfected cells)", "setting": "tTGase [2]; HEK293T cells coexpressing α-synuclein and tTGase, 100 μM, 200 μM", "value": "decreased inclusion formation"}
    ]},
    {"smiles": "O=C(O)CN(CCN(CC(=O)O)CC(=O)O)CC(=O)O", "note": "[EDTA]", "values": [
      {"measurement": "aggregate formation (α-synuclein)", "setting": "guinea pig liver tTGase; chelation with EDTA (0.1 mM, 5 mM)", "value": "dose-dependently blocked"}
    ]},
    {"smiles": "[Ca+2].[Cl-].[Cl-]", "note": "[CaCl2]", "values": [
      {"measurement": "generation of high molecular weight aggregates of α-synuclein", "setting": "guinea pig liver tTGase; addition of CaCl2 (5 mM), tTGase 10 nM, DTT 0.1 mM", "value": "significantly enhanced"}
    ]},
    {"smiles": "CNc1ccc2oc(C[C@H]3O[C@@]4(CC[C@H]3C)O[C@H]([C@H](C)C(=O)c3ccc[nH]3)[C@H](C)C[C@H]4C)nc2c1C(=O)O", "note": "[A23187]", "values": [
      {"measurement": "high molecular weight bands of α-synuclein", "setting": "tTGase [1]; COS-7 cells transfected with only α-synuclein, 0.1 μg/ml", "value": "some high molecular weight bands"},
      {"measurement": "formation of α-synuclein aggregates", "setting": "tTGase [1]; α-synuclein- and tTGase-transfected COS-7 cells, 0.1 μg/ml", "value": "significant increase"},
      {"measurement": "aggregate formation (aggregate-containing cells among transfected cells)", "setting": "tTGase [2]; HEK293T cells, 0.1 μg/ml", "value": "significantly increased"}
    ]}
  ]
}
